Experimental data published in PMC9313426, “CDI Exerts Anti-Tumor Effects by Blocking the FoxM1-DNA Interaction” (Biomedicines, 2022).

Target: T1, FoxM1 (Homo sapiens, UniProt Q08050)
T1 sequence (Q08050 222-360 limits assumed): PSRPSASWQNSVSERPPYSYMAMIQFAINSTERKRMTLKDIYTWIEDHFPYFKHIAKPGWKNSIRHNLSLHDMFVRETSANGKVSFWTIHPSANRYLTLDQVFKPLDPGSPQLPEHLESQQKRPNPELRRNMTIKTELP
Test: TR-FRET FoxM1-DBD/biotinylated dsDNA binding inhibition assay

IC50 [µM]	Compound
4.9 ± 1.5	CC(C)C1=C[C@@]23CC[C@@H]4[C@](C)(CCC[C@@]4(C)C(=O)O)[C@H]2C[C@@H]1[C@H]1C(=O)C=C(Cl)C(=O)[C@H]13 [CDI, (4aR,4bS,6aR,7R,10aR,10bR,12R,12aR)-3-Chloro-4,4a,5,6,6a,7,8,9,10,10a,10b,11,12,12a-tetradecahydro-7,10a-dimethyl-13-(1-methylethyl)-1,4-dioxo-1H-4b,12-ethenochrysene-7-carboxylic acid]
3.7 ± 0.9	Nc1c(C(=O)Nc2ccc(F)cc2)sc2nc(-c3cccs3)cc(C(F)(F)F)c12 [FDI-6]
